# Experiments:
# [1] = test system: #1-LTL+ and #2-LTL+ PToCs; experiment: Nephrotoxicity testing, LDH release; format: cell-based, human; conditions: for Effect on cisplatin-induced LDH release: cimetidine 10 mM, cisplatin 100 μM
# MRPs [2] = experiment: Fluorescein uptake and transport with MK571 in #1-LTL+ PToC; format: cell-based, human
# MRPs [3] = experiment: Transcellular transport assay of OAT1/3 substrates with MK571 in #1-LTL+ PToC; conditions: 10 μM MK571
# OAT1 = target: T1, OAT1 (Homo sapiens, UniProt Q4U2R8); experiment: Transcellular transport assay of OAT1 substrates; conditions: 10 μM substrate; #1-LTL+ PToC
# T1 sequence (Q4U2R8 1-563): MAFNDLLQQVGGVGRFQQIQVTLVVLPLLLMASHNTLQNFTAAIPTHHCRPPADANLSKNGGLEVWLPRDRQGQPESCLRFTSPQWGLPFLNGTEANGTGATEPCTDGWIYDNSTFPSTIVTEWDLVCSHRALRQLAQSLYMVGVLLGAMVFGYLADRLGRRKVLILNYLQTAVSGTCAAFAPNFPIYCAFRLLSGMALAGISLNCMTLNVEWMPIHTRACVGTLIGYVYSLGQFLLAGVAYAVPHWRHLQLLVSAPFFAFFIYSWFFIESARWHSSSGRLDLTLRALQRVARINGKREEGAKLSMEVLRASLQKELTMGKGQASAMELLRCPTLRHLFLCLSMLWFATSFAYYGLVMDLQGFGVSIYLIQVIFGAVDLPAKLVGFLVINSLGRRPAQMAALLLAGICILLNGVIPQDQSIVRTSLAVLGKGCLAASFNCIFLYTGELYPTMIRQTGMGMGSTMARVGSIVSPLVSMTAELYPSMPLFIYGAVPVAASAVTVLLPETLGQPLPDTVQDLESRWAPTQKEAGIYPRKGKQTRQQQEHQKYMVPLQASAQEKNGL
# #1-LTL+ PToC = experiment: LIVE/DEAD cell viability assay; format: cell-based, human; conditions: cimetidine with cisplatin
# OAT1/3 [4] = experiment: Transported fluorescein amount; format: in vitro ADME, human; conditions: plate reader; 30 min
# OAT1/3 [5] = experiment: Fluorescein uptake assay; format: cell-based, human; conditions: 2 μM fluorescein, 30 min
# OCT2 and MATE1 = experiment: Transcellular transport assay of metformin in PToC, LC/MS
# OAT3 = target: T2, OAT3 (Homo sapiens, UniProt Q8TCC7); experiment: Transcellular transport assay of OAT3 substrate
# T2 sequence (Q8TCC7 1-542): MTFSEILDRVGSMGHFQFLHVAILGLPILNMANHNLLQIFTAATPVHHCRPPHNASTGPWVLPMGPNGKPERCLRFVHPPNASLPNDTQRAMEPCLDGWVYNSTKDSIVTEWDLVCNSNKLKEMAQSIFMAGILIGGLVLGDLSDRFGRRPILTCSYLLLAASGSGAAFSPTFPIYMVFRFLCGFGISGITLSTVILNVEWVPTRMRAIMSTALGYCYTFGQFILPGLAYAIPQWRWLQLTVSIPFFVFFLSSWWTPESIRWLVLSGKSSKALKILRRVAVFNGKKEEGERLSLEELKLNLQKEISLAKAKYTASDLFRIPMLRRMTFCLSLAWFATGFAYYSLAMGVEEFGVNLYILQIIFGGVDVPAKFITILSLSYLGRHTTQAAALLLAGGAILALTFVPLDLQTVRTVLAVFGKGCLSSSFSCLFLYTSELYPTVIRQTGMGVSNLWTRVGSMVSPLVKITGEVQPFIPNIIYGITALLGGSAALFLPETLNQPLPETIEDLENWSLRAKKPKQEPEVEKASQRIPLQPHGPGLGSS
# P-gp = P-gp (Homo sapiens, UniProt P08183); conditions: #2-LTL+ PToC
# P-gp, sequence (P08183 whole entry): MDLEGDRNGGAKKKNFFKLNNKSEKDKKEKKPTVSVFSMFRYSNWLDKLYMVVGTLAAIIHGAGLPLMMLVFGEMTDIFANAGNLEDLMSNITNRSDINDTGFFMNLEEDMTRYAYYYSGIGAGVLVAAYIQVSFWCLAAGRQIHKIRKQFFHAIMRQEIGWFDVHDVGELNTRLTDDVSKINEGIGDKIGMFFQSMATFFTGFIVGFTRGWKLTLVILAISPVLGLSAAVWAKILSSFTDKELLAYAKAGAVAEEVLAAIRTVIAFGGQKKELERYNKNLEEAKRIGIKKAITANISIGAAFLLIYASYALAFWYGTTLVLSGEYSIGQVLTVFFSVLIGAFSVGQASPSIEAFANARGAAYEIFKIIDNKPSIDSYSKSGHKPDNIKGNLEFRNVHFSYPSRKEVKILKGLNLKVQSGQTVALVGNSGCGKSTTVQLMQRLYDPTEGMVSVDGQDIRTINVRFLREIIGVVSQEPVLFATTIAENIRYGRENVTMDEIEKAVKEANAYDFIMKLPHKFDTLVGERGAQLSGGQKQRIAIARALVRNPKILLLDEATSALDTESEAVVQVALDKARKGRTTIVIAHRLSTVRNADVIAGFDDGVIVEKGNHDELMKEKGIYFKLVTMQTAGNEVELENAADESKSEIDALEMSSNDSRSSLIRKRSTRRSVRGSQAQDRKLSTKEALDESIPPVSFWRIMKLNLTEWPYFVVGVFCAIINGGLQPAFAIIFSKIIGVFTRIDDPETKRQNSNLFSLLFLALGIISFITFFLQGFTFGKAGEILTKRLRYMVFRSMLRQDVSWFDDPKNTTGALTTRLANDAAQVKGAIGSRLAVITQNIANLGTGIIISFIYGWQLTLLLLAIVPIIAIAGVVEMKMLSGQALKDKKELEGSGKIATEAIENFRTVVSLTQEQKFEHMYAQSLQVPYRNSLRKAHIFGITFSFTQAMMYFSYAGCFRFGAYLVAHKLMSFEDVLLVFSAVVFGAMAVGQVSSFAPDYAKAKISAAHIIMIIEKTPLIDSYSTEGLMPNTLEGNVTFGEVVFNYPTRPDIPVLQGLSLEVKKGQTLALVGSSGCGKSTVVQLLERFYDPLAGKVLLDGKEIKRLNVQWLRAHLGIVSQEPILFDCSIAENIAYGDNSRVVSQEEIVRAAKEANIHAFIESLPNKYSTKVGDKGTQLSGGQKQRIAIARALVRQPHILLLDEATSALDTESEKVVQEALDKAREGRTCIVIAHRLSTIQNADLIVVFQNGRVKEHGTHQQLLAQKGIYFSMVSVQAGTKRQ
compound,measurement,setting,value
"COc1cccc2c1cc([N+](=O)[O-])c1c(C(=O)O)cc3c(c12)OCO3 [AA, Aristolochic acid I]",Normalized LDH release in #1-LTL+ compared to #2-LTL+,"[1]; 50 μM, 24 h",markedly higher
same,Normalized LDH release compared to control group without aristolochic acid,"[1]; 50 μM, basal, 24 h, #1-LTL+ and #2-LTL+ PToCs",significantly higher
CN(C)C(=O)CCSC(SCCC(=O)O)c1cccc(/C=C/c2ccc3ccc(Cl)cc3n2)c1 (stereo not drawn) [MK571],Fluorescein transcellular transport,MRPs [2],reduction
same,Intracellular fluorescein accumulation (fluorescence intensity),MRPs [2],notable increase
same,Effect on OAT1 excretion of PAH,MRPs [3],significant impairment
same,Effect on OAT1 excretion of adefovir,MRPs [3],significant impairment
same,Effect on OAT3 transport of rosuvastatin,MRPs [3],no substantial effect
Nc1ncnc2c1ncn2CCOCP(=O)(O)O [adefovir],Basal to apical (b → a) transport (Papp) in #1-LTL+ versus other PToC models,OAT1,notably higher
CN/C(=N/CCSCc1nc[nH]c1C)NC#N [cimetidine],Effect on cisplatin-induced LDH release,"[1]; 24 h, #1-LTL+",significant reduction
same,Effect on cisplatin-induced LDH release,"[1]; 24 h, #2-LTL+",less pronounced
same,Effect on cisplatin-induced LDH release,"[1]; 48 h, #1-LTL+ PToC",no difference among all conditions
same,Effect on cisplatin-induced LDH release,"[1]; 48 h, #2-LTL+ PToC",notable reduction
same,Effect on cisplatin-induced cell death (LIVE/DEAD),#1-LTL+ PToC,reduction in cell death
O=C1OC2(c3ccc(O)cc3Oc3cc(O)ccc32)c2ccccc21 [fluorescein],Transcellular transport of fluorescein in #2-LTL+ PToC relative to #1-LTL+ PToC,OAT1/3 [4],10%
same,Fluorescein uptake of #2-LTL+ PToC relative to #1-LTL+ PToC,OAT1/3 [5],approximately 60%
same,Fluorescein uptake compared to RPTEC,"OAT1/3 [5]; #1-LTL+ and #2-LTL+ PToC, absence of probenecid",significantly higher fluorescein uptake
CN(C)C(=N)N=C(N)N [metformin],Difference in ER between #1-LTL+ and #2-LTL+ PToCs,OCT2 and MATE1,no significant differences
same,"Transcellular basal to apical (b → a) transport rate, comparison of PToCs",OCT2 and MATE1; #1-LTL+ PToC versus #2-LTL+ and RPTEC,highest transport rates
CCCN(CCC)S(=O)(=O)c1ccc(C(=O)O)cc1 [probenecid],Impact on rosuvastatin transport,"OAT3; probenecid 100 μM, #1-LTL+ and #2-LTL+",minimal impact
C=C[C@H]1C[N@@]2CC[C@H]1C[C@@H]2[C@@H](O)c1ccnc2ccc(OC)cc12 [quinidine],Basal to apical (b → a) transport rate compared with RPTEC,P-gp,less basal to apical (b → a) transport rate
CC(C)c1nc(N(C)S(C)(=O)=O)nc(-c2ccc(F)cc2)c1/C=C/[C@@H](O)C[C@@H](O)CC(=O)O [rosuvastatin],Basal to apical (b → a) transport (Papp) in #1-LTL+ versus other PToC models,"OAT3; 10 μM substrate, #1-LTL+ PToC",notably higher
